In patent US20260049084A1, “ENPP1 MODULATORS AND PRODUCTS AND USES THEREOF” (Gossamer Bio Services, Inc., priority 2022, published 2026):
pIC50: −log10 of the molar value.

Tests used:
[1] = target: Recombinant human ENPP1 protein (Homo sapiens (Human), UniProt P22413); assay: ENPP1 cGAMP Biochemical Assay; conditions: 0.5 nM ENPP1, 1000 nM 2′3′-cGAMP substrate, TR-FRET
Description: ENPP1 cGAMP Biochemical Assay
Compounds were added to 384 well Proxiplate (PerkinElmer, Waltham MA) at 100 nl/well from DMSO stocks using Echo (Labcyte, San Jose CA). Recombinant human ENPP1 protein (R&D Systems, Minneapolis MN) was prepared in assay buffer (50 mM Tris pH7.5, 1 mM TCEP pH7.0, 2 mM MgCl2 and 0.005% Tween20) and added at 10 μl/well. The plate was sealed, centrifuged at 1000 rpm for 1 minute and incubated at room temperature for 30 minutes before 5 μl substrate 2′3′-cGAMP (R&D Systems, Minneapolis MN) in assay buffer was added to each well to a final concentration of 0.5 nM ENPP1 and 1000 nM 2′3′-cGAMP. The plate was sealed and centrifuged at 1000 rpm for 1 minute again. After incubation at 25° C. for 60 minutes, Terbium labelled AMP/GMP antibody and AMP/GMP HiLyte647 Tracer (BellBrook Labs, Fitchburg WI) in detection buffer (50 mM Tris pH7.5, 20 mM EDTA and 0.1% Prionex) were added to the reaction mixture to a final concentration of 2 nM (5 μl/well). The assay plate was incubated at room temperature for 120 minutes. TR-FRET signal was detected using Envision (PerkinElmer, Waltham MA).

[2] = target: Recombinant human ENPP3 protein (Homo sapiens (Human), UniProt O14638); assay: ENPP3 cGAMP Biochemical Assay; conditions: 70.5 nM ENPP3, 120 μM 2′3′-cGAMP substrate, TR-FRET
Recombinant human ENPP3 protein, sequence (O14638 whole entry): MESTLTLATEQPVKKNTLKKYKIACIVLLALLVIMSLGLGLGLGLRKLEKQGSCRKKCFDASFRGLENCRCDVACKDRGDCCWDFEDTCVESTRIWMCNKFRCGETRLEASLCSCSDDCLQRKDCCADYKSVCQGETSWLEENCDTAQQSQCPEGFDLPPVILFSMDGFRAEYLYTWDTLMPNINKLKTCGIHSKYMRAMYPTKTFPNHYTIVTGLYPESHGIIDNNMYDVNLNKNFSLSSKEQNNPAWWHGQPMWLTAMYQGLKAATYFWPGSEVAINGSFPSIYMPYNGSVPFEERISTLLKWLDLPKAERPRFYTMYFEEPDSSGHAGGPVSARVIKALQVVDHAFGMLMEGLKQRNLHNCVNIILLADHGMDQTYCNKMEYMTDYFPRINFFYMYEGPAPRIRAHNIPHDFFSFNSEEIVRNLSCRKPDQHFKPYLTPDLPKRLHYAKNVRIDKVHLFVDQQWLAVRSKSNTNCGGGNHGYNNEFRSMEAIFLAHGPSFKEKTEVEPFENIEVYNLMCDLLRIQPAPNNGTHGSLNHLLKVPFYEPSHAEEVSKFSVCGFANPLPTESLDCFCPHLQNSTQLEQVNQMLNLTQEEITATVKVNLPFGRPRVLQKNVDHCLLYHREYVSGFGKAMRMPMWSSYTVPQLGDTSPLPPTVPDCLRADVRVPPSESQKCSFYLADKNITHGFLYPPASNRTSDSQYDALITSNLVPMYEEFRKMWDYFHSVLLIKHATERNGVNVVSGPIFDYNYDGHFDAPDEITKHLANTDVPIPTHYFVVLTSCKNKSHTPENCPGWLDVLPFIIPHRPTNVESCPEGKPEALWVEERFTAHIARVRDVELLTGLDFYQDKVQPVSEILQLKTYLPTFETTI
Description: ENPP3 cGAMP Biochemical Assay
Compounds were added to 384 well Proxiplate (PerkinElmer, Waltham MA) at 100 nl/well from DMSO stocks using Echo (Labcyte, San Jose CA). Recombinant human ENPP3 protein (Acro Biosystems, Newwark DE) was prepared in assay buffer (50 mM Tris pH7.5, 1 mM TCEP pH7.0, 2 mM MgCl2, 2 mM CaCl2), 2 mM ZnCl2 and 0.005% Tween20) and added at 2 μl/well. The plate was sealed, centrifuged at 1000 rpm for 1 minute and incubated at room temperature for 30 minutes before 2 μl substrate 2′3′-cGAMP (R&D Systems, Minneapolis MN) in assay buffer was added to each well to a final concentration of 70.5 nM ENPP3 and 120 μM 2′3′-cGAMP. The plate was sealed and centrifuged at 1000 rpm for 1 minute again. After incubation at 25° C. for 60 minutes, Terbium labelled AMP/GMP antibody and AMP/GMP HiLyte647 Tracer (BellBrook Labs, Fitchburg WI) in detection buffer (50 mM Tris pH7.5, 20 mM EDTA and 0.1% Prionex) were added to the reaction mixture to a final concentration of 475 nM and 3 nM respectively. The assay plate was incubated at room temperature for 120 minutes. TR-FRET signal was detected using Envision (PerkinElmer, Waltham MA).

Recombinant human ENPP1 protein, sequence (P22413 whole entry): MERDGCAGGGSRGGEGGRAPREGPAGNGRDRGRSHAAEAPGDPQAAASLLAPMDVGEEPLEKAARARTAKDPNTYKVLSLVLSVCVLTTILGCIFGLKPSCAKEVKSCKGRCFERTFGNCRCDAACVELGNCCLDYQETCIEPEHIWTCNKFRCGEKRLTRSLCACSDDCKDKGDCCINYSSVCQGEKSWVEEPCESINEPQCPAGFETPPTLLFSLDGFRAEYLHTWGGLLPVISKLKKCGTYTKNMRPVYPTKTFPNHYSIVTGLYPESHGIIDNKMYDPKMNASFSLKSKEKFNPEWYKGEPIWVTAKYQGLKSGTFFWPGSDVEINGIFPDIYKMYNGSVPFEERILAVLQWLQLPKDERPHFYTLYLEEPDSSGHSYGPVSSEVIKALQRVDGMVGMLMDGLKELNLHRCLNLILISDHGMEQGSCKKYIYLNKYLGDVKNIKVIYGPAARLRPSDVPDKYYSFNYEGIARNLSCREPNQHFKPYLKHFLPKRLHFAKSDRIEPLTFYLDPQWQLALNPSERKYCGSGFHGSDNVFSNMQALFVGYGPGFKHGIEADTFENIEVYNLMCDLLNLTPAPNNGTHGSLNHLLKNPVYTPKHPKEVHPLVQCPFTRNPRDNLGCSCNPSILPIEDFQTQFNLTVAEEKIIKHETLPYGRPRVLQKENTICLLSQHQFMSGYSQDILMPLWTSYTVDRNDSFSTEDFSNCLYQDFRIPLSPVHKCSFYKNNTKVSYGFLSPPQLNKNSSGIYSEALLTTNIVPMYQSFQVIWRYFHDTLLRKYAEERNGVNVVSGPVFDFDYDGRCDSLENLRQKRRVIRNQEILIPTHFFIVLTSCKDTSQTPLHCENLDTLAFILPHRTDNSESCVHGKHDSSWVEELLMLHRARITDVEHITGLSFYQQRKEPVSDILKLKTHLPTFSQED

Row | SMILES | pIC50 [1] | pIC50 [2]
1 | CCn1nc(Cl)c2c(NCC3CCN(S(=N)(N)=O)CC3)ccnc21 (centres unmarked) [Compound 1C, 4-(((3-chloro-1-ethyl-1H-pyrazolo[3,4-b]pyridin-4-yl)amino)methyl)piperidine-1-sulfonimidamide] | 7.00 to 8.00 | ≤ 6.00
2 | CCn1ncc2c(NCc3ccc(S(=N)(N)=O)cc3)cc(-c3ncc[nH]3)nc21 (centres unmarked) [Compound 2C, 4-(((1-ethyl-6-(1H-imidazol-2-yl)-1H-pyrazolo [3,4-b]pyridin-4-yl)amino)methyl)benzene sulfonimidamide] | 6.00 to 7.00 | 6.00 to 7.00
3 | CCn1ncc2c(NCc3ccc(S(=N)(N)=O)cc3)ncnc21 (centres unmarked) [Compound 2D, 4-(((1-ethyl-1H-pyrazolo[3,4-d]pyrimidin-4-yl)amino)methyl)benzenesulfonimidamide] | 7.00 to 8.00 | ≤ 6.00
4 | C#CCn1nc(Cl)c2c(NCc3c(F)cc(S(N)(=O)=NC)cc3F)ccnc21 (centres unmarked) [Compound 3B, 4-(((3-chloro-1-(prop-2-yn-1-yl)-1H-pyrazolo[3,4-b]pyridin-4-yl)amino)methyl)-3,5-difluoro-N-methylbenzenesulfonimidamide] | > 8.00 | 6.00 to 7.00
5 | C#CCn1nc(Cl)c2c(N(C)Cc3ccc(S(N)(=O)=NC)cc3)ccnc21 (centres unmarked) [Compound 3C, 4-(((3-chloro-1-(prop-2-yn-1-yl)-1H-pyrazolo[3,4-b]pyridin-4-yl)(methyl)amino)methyl)-N′-methylbenzenesulfonimidamide] | > 8.00 | 6.00 to 7.00
6 | CCn1ncc2c(NCc3ccc(S(N)(=O)=NC#N)cc3)ccnc21 (centres unmarked) [Compound 3D, N′-cyano-4-(((1-ethyl-1H-pyrazolo[3,4-b]pyridin-4-yl)amino)methyl)benzenesulfonimidamide] | > 8.00 | 6.00 to 7.00
7 | CCn1ncc2c(NCc3ccc([S@@](N)(=O)=NC)cc3)ccnc21 [Compound 3E, (S)-4-(((1-ethyl-1H-pyrazolo[3,4-b]pyridin-4-yl)amino)methyl)-N′-methylbenzenesulfonimidamide] | > 8.00 | ≤ 6.00
8 | CCn1ncc2c(NCc3ccc([S@](N)(=O)=NC)cc3)ccnc21 [Compound 3F, (R)-4-(((1-ethyl-1H-pyrazolo[3,4-b]pyridin-4-yl)amino)methyl)-N′-methylbenzenesulfonimidamide] | 6.00 to 7.00 | ≤ 6.00
9 | CCn1ncc2c(Nc3ccc(S(N)(=O)=NCC4CC4)cc3)ccnc21 (centres unmarked) [Compound 5A, N′-(cyclopropylmethyl)-4-((1-ethyl-1H-pyrazolo [3,4-b]pyridin-4-yl)amino) benzenesulfonimidamide] | 7.00 to 8.00 | 6.00 to 7.00
10 | CCn1ncc2c(Nc3ccc(S(N)(=O)=NC)cc3)ccnc21 (centres unmarked) [Compound 5B, 4-((1-ethyl-1H-pyrazolo[3,4-b]pyridin-4-yl)amino)-N′-methylbenzenesulfonimidamide] | 7.00 to 8.00 | ≤ 6.00
11 | CCn1nc(Cl)c2c(Nc3ccc(S(=N)(N)=O)cc3)ccnc21 (centres unmarked) [Compound 5C, 4-((3-chloro-1-ethyl-1H-pyrazolo[3,4-b]pyridin-4-yl)amino)benzenesulfonimidamide] | 7.00 to 8.00 | 6.00 to 7.00
12 | CCn1nc(Cl)c2c(Nc3ccc(S(N)(=O)=NC)cc3)ccnc21 (centres unmarked) [Compound 5D, 4-((3-chloro-1-ethyl-1H-pyrazolo[3,4-b]pyridin-4-yl)amino)-N′-methylbenzenesulfonimidamide] | > 8.00 | 6.00 to 7.00
13 | CCN=S(N)(=O)c1ccc(Nc2ccnc3c2c(Cl)nn3CC)cc1 (centres unmarked) [Compound 5E, 4-((3-chloro-1-ethyl-1H-pyrazolo[3,4-b]pyridin-4-yl)amino)-N′-ethylbenzenesulfonimidamide] | > 8.00 | 6.00 to 7.00
14 | CCn1nc(Cl)c2c(Nc3ccc(S(N)(=O)=NCC4CC4)cc3)ccnc21 (centres unmarked) [Compound 5F, 4-((3-chloro-1-ethyl-1H-pyrazolo[3,4-b]pyridin-4-yl)amino)-N′-(cyclopropylmethyl)benzene sulfonimidamide] | > 8.00 | 6.00 to 7.00
15 | CCn1nc(Cl)c2c(Nc3ccc(S(N)(=O)=NC#N)cc3)ccnc21 (centres unmarked) [Compound 5G, 4-((3-chloro-1-ethyl-1H-pyrazolo[3,4-b]pyridin-4-yl)amino)-N′-cyanobenzenesulfonimidamide] | 7.00 to 8.00 | ≤ 6.00
16 | CCn1nc(Cl)c2c(Nc3ccc(S(N)(=O)=NC(C)C)cc3)ccnc21 (centres unmarked) [Compound 5H, 4-((3-chloro-1-ethyl-1H-pyrazolo[3,4-b]pyridin-4-yl)amino)-N′-isopropylbenzenesulfonimidamide] | > 8.00 | 6.00 to 7.00
17 | CCn1nc(Cl)c2c(Nc3ccc(S(N)(=O)=NC4CC4)cc3)ccnc21 (centres unmarked) [Compound 5I, 4-((3-chloro-1-ethyl-1H-pyrazolo[3,4-b]pyridin-4-yl)amino)-N′-cyclopropylbenzenesulfonimidamide] | > 8.00 | ≤ 6.00

Other lines, results leading:

Row | pIC50 [1] | pIC50 [2] | SMILES
18 | > 8.00 | ≤ 6.00 | C#CCn1nc(Cl)c2c(NCc3ccc(S(=N)(=O)NC)cc3)ccnc21 (stereo in doubt) [Compound 10B, (R)-4-(((3-chloro-1-(prop-2-yn-1-yl)-1H-pyrazolo[3,4-b]pyridin-4-yl)amino)methyl)-N-methylbenzenesulfonimidamide]
19 | > 8.00 | 7.00 to 8.00 | C#CCn1nc(Cl)c2c(NCc3ccc(S(=N)(=O)NC)cc3)ccnc21 (stereo in doubt) [Compound 10C, (S)-4-(((3-chloro-1-(prop-2-yn-1-yl)-1H-pyrazolo[3,4-b]pyridin-4-yl)amino)methyl)-N-methylbenzenesulfonimidamide]
20 | 7.00 to 8.00 | ≤ 6.00 | C#CCn1nc(Cl)c2c(NCc3ccc([S@](C)(=N)=O)cc3)ccnc21 [Compound 6A, (R)-(4-(((3-chloro-1-(prop-2-yn-1-yl)-1H-pyrazolo[3,4-b]pyridin-4-yl)amino)methyl)phenyl)(imino)(methyl)-λ^6-sulfanone]
21 | > 8.00 | 7.00 to 8.00 | C#CCn1nc(Cl)c2c(NCc3ccc([S@@](C)(=N)=O)cc3)ccnc21 [Compound 6B, (S)-(4-(((3-chloro-1-(prop-2-yn-1-yl)-1H-pyrazolo[3,4-b]pyridin-4-yl)amino)methyl)phenyl)(imino)(methyl)-λ^6-sulfanone]
22 | 6.00 to 7.00 | ≤ 6.00 | CCn1ncc2c(OCc3ccc(S(N)(=O)=NC)cc3)ccnc21 (centres unmarked) [Compound 7A, 4-(((1-ethyl-1H-pyrazolo[3,4-b]pyridin-4-yl)oxy)methyl)-N′-methylbenzenesulfonimidamide]
23 | – | ≤ 6.00 | CCn1ncc2c(NCC3CCN([S@@](C)(=N)=O)CC3)ccnc21 [Compound 14G, (R)-1-ethyl-N-((1-(S-methylsulfonimidoyl)piperidin-4-yl)methyl)-1H-pyrazolo[3,4-b]pyridine-4-amine]
24 | – | ≤ 6.00 | CCn1ncc2c(NCC3CCN([S@](C)(=N)=O)CC3)ccnc21 [Compound 14H, (S)-1-ethyl-N-((1-(S-methylsulfonimidoyl)piperidin-4-yl)methyl)-1H-pyrazolo[3,4-b]pyridin-4-amine]
25 | – | 6.00 to 7.00 | CN=[S@](N)(=O)N1CCC(CNc2ccnc3c2c(Cl)nn3CC#N)CC1 [Compound 15G, (S)-4-(((3-chloro-1-(cyanomethyl)-1H-pyrazolo[3,4-b]pyridin-4-yl)amino)methyl)-N′-methylpiperidine-1-sulfonimidamide]
